Source: US12083231B2, “Starch-based double-loaded functional nano particle as well as preparation method and application” (Hefei University of Technology, priority 2021, dated 2024)

Experiment: Retention rate of quercetin and anthocyanin during storage for 14 days
Type: physicochemical
Conditions: after being stored for 14 days; nanoparticle with EHT:carboxymethyl dextrin mass ratio 1:1
Text: It can be seen from FIG. 8 that quercetin and anthocyanin alone are easy to degrade in the environment, and only about 20% of quercetin and anthocyanin can be retained after being stored for 14 days. […] The significant increase of retention rate proves that the starch-based double-loaded functional colloid nanoparticle can effectively protect quercetin and anthocyanin from being degraded.

retention rate of quercetin	retention rate of anthocyanin	Molecule
about 20%	–	O=c1c(O)c(-c2ccc(O)c(O)c2)oc2cc(O)cc(O)c12 [quercetin]
–	about 20%	anthocyanin
